Measured values as given in ChEMBL document CHEMBL1201862, “PubChem BioAssay data set” (2004).
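96-well plates; 48 h exposure; 5 concentrations. Endpoints by linear interpolation between flanking doses. Not reached: highest tested concentration assigned. GI50 = concentration required for 50% inhibition of growth.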 Activity calls are given as the source filed them. Cut-off read from the data, not from the text of the source: active = GI50 up to about 1.1 µM and inactive = higher.

What was measured:
Experiment in all cases: NCI tumour cell line growth inhibition, 48 h
HT-29 = tested on: HT-29
HOP-62 = tested on: HOP-62
NCI-H23 = tested on: NCI-H23
A549 = tested on: A549
SK-MEL-5 = tested on: SK-MEL-5
RPMI-8226 = tested on: RPMI-8226
MDA-N = tested on: MDA-N
MCF7 = tested on: MCF7
EKVX = tested on: EKVX
IGROV-1 = tested on: IGROV-1
Malme-3M = tested on: Malme-3M
OVCAR-8 = tested on: OVCAR-8
SR = tested on: SR
Hs-578T = tested on: Hs-578T
PC-3 = tested on: PC-3
U-251 = tested on: U-251
SK-MEL-2 = tested on: SK-MEL-2
HL-60 = tested on: HL-60
SF-539 = tested on: SF-539
HOP-92 = tested on: HOP-92

Measured: GI50

COCCCNC(=O)C1=C(C)NC(C)=C(C(=O)NCCCOC)C1
inactive: HT-29 > 100 µM | HOP-62 > 100 µM | NCI-H23 > 100 µM | A549 > 100 µM | SK-MEL-5 > 100 µM | RPMI-8226 > 100 µM | MDA-N > 100 µM | MCF7 > 100 µM | EKVX 18.6 µM | IGROV-1 11.3 µM | Malme-3M 18.1 µM | OVCAR-8 > 100 µM | SR > 100 µM | Hs-578T 86.5 µM | PC-3 > 100 µM | U-251 > 100 µM | SK-MEL-2 > 100 µM | HL-60 > 100 µM | SF-539 > 100 µM | HOP-92 89.3 µM

COc1cc(C[C@H]2C(=O)OC[C@@H]2Cc2ccc(OC)c(OC)c2)cc(OC)c1
inactive: HT-29 33.2 µM | HOP-62 > 100 µM | NCI-H23 39.4 µM | A549 74.8 µM | SK-MEL-5 16.8 µM | RPMI-8226 52.7 µM | MDA-N 58.5 µM | MCF7 34.2 µM | EKVX 55.6 µM | IGROV-1 > 100 µM | Malme-3M 55.6 µM | OVCAR-8 98.4 µM | SR 30.5 µM | Hs-578T > 100 µM | PC-3 33 µM | U-251 70.8 µM | SK-MEL-2 78.5 µM | HL-60 37.2 µM | SF-539 > 100 µM | HOP-92 92.9 µM

CCCN(CCC)C(=S)N/N=C(/C)c1ccccc1O
inactive: HT-29 6.28 µM | HOP-62 4.25 µM | NCI-H23 12.1 µM | A549 5.64 µM | SK-MEL-5 5.81 µM | RPMI-8226 4.33 µM | MDA-N 9.77 µM | MCF7 4.02 µM | EKVX 6.31 µM | IGROV-1 4.43 µM | Malme-3M 3.2 µM | OVCAR-8 3.42 µM | SR 3.06 µM | Hs-578T > 70 µM | PC-3 5.94 µM | U-251 3.84 µM | SK-MEL-2 6.7 µM | HL-60 3.96 µM | SF-539 4.06 µM | HOP-92 15.9 µM

Cc1n[nH]c(=O)n1/N=C\CC/C=N\n1c(C)n[nH]c1=O
inactive: HT-29 > 100 µM | HOP-62 > 100 µM | NCI-H23 > 100 µM | A549 > 100 µM | SK-MEL-5 > 100 µM | RPMI-8226 > 100 µM | MDA-N > 100 µM | MCF7 > 100 µM | EKVX > 100 µM | IGROV-1 > 100 µM | Malme-3M > 100 µM | OVCAR-8 > 100 µM | SR > 100 µM | Hs-578T > 100 µM | PC-3 > 100 µM | U-251 > 100 µM | SK-MEL-2 > 100 µM | HL-60 > 100 µM | SF-539 > 100 µM | HOP-92 > 100 µM
